Results taken from ChEMBL document CHEMBL4052588, “Design of a Biased Potent Small Molecule Inhibitor of the Bromodomain and PHD Finger-Containing (BRPF) Proteins Suitable for Cellular and in Vivo Studies” (J Med Chem, 2017).

Legend:
[1] = target: T1, Bromodomain-containing protein 9 (Homo sapiens, UniProt Q9H8M2); assay: Inhibition of human BRD9 expressed in Escherichia coli BL21 after 1 hr by BROMOscan assay
T1 sequence (Q9H8M2 whole entry): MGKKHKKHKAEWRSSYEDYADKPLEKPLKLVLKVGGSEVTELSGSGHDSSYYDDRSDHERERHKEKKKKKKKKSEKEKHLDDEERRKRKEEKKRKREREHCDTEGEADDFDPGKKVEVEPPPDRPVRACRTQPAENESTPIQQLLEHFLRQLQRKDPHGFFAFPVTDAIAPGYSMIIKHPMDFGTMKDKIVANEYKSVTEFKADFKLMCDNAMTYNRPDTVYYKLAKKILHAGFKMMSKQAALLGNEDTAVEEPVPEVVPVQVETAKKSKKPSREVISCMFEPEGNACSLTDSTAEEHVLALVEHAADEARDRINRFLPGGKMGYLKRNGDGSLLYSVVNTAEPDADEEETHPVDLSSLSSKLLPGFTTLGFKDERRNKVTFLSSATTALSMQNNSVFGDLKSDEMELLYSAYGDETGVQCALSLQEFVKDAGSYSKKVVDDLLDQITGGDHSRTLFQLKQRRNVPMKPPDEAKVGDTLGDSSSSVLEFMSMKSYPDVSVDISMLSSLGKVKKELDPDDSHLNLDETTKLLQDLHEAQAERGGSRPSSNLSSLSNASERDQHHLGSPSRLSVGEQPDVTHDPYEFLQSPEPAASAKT

[2] = target: T2, Peregrin (Homo sapiens, UniProt P55201); assay: Inhibition of human BRPF1 expressed in Escherichia coli BL21 after 1 hr by BROMOscan assay
T2 sequence (P55201 whole entry): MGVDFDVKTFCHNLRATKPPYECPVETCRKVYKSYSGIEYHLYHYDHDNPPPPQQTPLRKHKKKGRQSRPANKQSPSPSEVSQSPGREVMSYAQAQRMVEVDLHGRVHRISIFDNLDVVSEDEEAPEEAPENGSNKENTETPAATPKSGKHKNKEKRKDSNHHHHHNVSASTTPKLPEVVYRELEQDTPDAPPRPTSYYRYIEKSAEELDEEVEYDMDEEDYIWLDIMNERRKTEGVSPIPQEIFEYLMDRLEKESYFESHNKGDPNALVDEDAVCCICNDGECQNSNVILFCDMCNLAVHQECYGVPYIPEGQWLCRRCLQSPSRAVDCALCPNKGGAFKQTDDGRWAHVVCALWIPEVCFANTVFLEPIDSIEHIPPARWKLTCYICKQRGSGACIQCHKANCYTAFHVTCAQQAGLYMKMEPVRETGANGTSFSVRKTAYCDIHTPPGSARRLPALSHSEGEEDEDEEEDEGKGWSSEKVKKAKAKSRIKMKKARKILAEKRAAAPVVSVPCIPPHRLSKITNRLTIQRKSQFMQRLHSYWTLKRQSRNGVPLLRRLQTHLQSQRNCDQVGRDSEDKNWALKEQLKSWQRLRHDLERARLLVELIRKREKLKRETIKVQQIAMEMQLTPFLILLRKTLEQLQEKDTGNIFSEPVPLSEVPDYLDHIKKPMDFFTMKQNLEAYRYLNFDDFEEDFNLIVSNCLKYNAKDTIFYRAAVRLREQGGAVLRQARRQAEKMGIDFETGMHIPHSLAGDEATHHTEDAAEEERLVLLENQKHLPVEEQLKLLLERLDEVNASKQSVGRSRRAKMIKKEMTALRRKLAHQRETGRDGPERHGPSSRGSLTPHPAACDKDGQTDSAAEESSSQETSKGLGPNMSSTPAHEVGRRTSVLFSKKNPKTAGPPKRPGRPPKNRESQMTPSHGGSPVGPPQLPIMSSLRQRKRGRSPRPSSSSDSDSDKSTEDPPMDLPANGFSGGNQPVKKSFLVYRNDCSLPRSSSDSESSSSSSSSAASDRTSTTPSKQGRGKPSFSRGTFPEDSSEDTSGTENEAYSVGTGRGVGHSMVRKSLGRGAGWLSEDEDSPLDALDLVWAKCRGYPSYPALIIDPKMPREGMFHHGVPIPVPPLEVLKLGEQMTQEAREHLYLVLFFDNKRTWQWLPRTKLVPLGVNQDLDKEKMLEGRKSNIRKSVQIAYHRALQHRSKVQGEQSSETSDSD

[3] = target: T3, Bromodomain and PHD finger-containing protein 3 (Homo sapiens, UniProt Q9ULD4); assay: Inhibition of human BRPF3 expressed in Escherichia coli BL21 after 1 hr by BROMOscan assay
T3 sequence (Q9ULD4 whole entry): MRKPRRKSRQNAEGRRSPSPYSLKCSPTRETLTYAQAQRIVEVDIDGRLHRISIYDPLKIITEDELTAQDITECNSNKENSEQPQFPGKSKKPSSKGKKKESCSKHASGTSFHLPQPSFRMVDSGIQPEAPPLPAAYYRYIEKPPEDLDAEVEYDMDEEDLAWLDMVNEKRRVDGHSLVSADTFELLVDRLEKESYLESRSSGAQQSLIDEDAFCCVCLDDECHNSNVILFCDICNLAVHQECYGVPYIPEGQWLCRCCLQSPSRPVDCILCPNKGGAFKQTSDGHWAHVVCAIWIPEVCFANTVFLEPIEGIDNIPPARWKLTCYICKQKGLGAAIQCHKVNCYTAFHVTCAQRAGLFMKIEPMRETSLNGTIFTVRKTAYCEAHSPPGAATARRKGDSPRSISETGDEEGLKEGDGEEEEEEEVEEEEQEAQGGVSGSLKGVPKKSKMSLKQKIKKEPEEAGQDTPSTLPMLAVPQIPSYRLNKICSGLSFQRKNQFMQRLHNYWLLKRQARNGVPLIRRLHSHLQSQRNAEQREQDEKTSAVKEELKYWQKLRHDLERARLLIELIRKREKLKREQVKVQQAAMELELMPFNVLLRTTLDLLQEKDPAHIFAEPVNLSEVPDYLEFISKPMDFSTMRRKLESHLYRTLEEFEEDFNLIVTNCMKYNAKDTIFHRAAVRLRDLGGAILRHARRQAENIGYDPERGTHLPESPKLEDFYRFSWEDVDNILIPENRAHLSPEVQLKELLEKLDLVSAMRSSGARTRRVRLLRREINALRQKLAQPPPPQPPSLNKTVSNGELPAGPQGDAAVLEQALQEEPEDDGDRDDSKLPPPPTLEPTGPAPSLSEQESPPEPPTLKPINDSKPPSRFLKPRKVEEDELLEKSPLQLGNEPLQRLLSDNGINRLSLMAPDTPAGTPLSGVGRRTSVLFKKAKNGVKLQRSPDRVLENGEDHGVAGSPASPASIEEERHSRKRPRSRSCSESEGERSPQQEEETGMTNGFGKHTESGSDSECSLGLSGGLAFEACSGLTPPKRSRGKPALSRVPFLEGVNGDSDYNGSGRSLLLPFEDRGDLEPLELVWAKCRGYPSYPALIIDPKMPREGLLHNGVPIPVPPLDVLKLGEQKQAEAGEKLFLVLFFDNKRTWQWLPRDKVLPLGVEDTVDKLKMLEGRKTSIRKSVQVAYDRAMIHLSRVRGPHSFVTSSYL

| SMILES | IC50 [1] | IC50 [2] | IC50 [3] |
| --- | --- | --- | --- |
| Cn1c(=O)ccc2cc(NS(=O)(=O)c3ccc(C#N)c(Cl)c3)ccc21 | 2500 nM | 62 nM | 2300 nM |
| CCc1cc2cc(NS(=O)(=O)c3ccc(C#N)cc3)ccc2n(CC)c1=O | > 100000 nM | > 100000 nM | > 100000 nM |

These reach a lower IC50 [1]. Values come first.

| IC50 [1] | IC50 [2] | IC50 [3] | SMILES |
| --- | --- | --- | --- |
| 890 nM | 60 nM | 9300 nM | COc1cc2c(cc1NS(=O)(=O)c1ccc(C#N)cc1)c(C)cc(=O)n2C |
| 420 nM | 220 nM | 12000 nM | COc1ccccc1C(=O)Nc1cc2cc(C)c(=O)n(C)c2cc1N1CCCC1 |
| 310 nM | 7.9 nM | 260 nM | Cc1cc2cc(NS(=O)(=O)c3ccc(C#N)cc3)ccc2n(C)c1=O |
